Test results from ChEMBL document CHEMBL1131172 (J Med Chem, 1998).

How the values were obtained:
UO-31 [1] = test: Inhibition of the growth of renal cancer(UO-31) cell line; assay type: functional; conditions: Homo sapiens
DU-145 [2] = test: Inhibition of the growth of prostate cancer(DU-145) cell line; assay type: functional; conditions: Homo sapiens
SF-295 [3] = test: Inhibition of the growth of CNS cancer(SF-295) cell line at 0.01 uM; assay type: functional; conditions: Homo sapiens
MDA-N [4] = test: Inhibition of the growth of breast cancer(MDA-N) cell line; assay type: functional; conditions: Homo sapiens
M14 [5] = test: Inhibition of the growth of melanoma cancer (M14) cell line; assay type: functional; conditions: Homo sapiens
IGROV-1 [6] = test: Inhibition of the growth of ovarian cancer(IGROVI) cell line; assay type: functional; conditions: Homo sapiens
MCF7 = test: Inhibition of the growth of breast cancer (MCF-7) cell line; assay type: functional; conditions: Homo sapiens
NCI-H522 [7] = test: inhibition of the growth of non-small-cell lung cancer (NCI-H522) cell line; assay type: functional; conditions: Homo sapiens
KM12 = test: inhibition of the growth of colon cancer(KM-12) cell line at 0.01 uM; assay type: functional; conditions: Homo sapiens
A549 [8] = test: Inhibition of the growth of non-small-cell lung cancer (A549/ATCC) cell line at 0.01 uM; assay type: functional; conditions: Homo sapiens
SNB-19 [9] = test: Inhibition of the growth of CNS cancer(SNB-19) cell line at 0.01 uM; assay type: functional; conditions: Homo sapiens
UO-31 [10] = test: Inhibition of the growth of renal cancer(UO-31) cell line at 0.01 uM; assay type: functional; conditions: Homo sapiens
NCI-H322M = test: Inhibition of the growth of non-small-cell lung cancer (NCI-H322M) cell line; conditions: Homo sapiens
OVCAR-8 [11] = test: Inhibition of the growth of ovarian cancer(OVCAR-8) cell line at 0.01 uM; assay type: functional; conditions: Homo sapiens
SNB-19 [12] = test: inhibition of the growth of CNS cancer(SNB-19) cell line; assay type: functional; conditions: Homo sapiens
MDA-MB-435 [13] = test: Inhibition of the growth of breast cancer (MDA-MB-435) cell line at 0.01 uM; assay type: functional; conditions: Homo sapiens
NCI-H23 [14] = test: Inhibition of the growth of non-small-cell lung cancer (NCI-H23) cell line; assay type: functional; conditions: Homo sapiens
RPMI-8226 [15] = test: Inhibition of the growth of leukemia (RPMI-8226) cell line; assay type: functional; conditions: Homo sapiens
Dihydrofolate reductase [16] = target: T1, Dihydrofolate reductase (Rattus norvegicus, UniProt Q920D2)
T1 sequence (Q920D2 whole entry): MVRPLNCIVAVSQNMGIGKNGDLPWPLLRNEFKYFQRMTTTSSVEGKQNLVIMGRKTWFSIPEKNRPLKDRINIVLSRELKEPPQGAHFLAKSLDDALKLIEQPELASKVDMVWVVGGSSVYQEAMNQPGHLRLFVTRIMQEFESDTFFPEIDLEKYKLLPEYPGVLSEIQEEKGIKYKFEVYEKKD
Description: Inhibitory activity against dihydrofolate reductase (DHFR) from rat liver

SF-295 [17] = test: inhibition of the growth of CNS cancer(SF-295) cell line; assay type: functional; conditions: Homo sapiens
M14 [18] = test: Inhibition of the growth of melanoma cancer (M14) cell line at 0.01 uM; assay type: functional; conditions: Homo sapiens
NCI/ADR-RES [19] = test: Inhibition of the growth of breast cancer (MCF7/ADR-RES) cell line at 0.01 uM; assay type: functional; conditions: Homo sapiens
DU-145 [20] = test: Inhibition of the growth of prostate cancer(DU-145) cell line at 0.01 uM; assay type: functional; conditions: Homo sapiens
Dihydrofolate reductase [21] = target: T2, Dihydrofolate reductase (Pneumocystis carinii, UniProt P16184)
T2 sequence (P16184 whole entry): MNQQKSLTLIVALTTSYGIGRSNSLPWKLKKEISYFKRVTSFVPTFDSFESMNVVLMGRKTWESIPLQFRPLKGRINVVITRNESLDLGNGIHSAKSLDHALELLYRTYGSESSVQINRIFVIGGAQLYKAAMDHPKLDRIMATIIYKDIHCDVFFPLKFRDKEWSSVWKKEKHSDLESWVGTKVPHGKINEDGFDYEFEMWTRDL
Description: Inhibitory activity against dihydrofolate reductase (DHFR) from Pneumocystis carinii

HCT-15 [22] = test: inhibition of the growth of colon cancer(HCT-15) cell line; assay type: functional; conditions: Homo sapiens
SR [23] = test: Inhibition of the growth of leukemia(SR) cell line. value in parentheses is percent inhibition at 0.01 uM; assay type: functional; conditions: Homo sapiens
CAKI-1 [24] = test: Inhibition of the growth of renal cancer(CAKI-1) cell line; assay type: functional; conditions: Homo sapiens
HCT-116 [25] = test: Inhibition of the growth of colon cancer(HCT116) cell line at 0.01 uM; assay type: functional; conditions: Homo sapiens
786-0 = test: Inhibition of the growth of renal cancer(786-0) cell line. value in parentheses is percent inhibition at 0.01 uM; assay type: functional; conditions: Homo sapiens
A549 [26] = test: Inhibition of the growth of non-small-cell lung cancer (A549/ATCC) cell line; assay type: functional; conditions: Homo sapiens
NCI-H460 [27] = test: inhibition of the growth of non-small-cell lung cancer (NCI-H460) cell line at 0.01 uM; assay type: functional; conditions: Homo sapiens
SF-268 [28] = test: inhibition of the growth of CNS cancer(SF-268) cell line; assay type: functional; conditions: Homo sapiens
SR [29] = test: Inhibition of the growth of leukemia(SR) cell line. value in parentheses is percent inhibition at 0.01 uM at 0.01 uM; assay type: functional; conditions: Homo sapiens
OVCAR-8 [30] = test: Inhibition of the growth of ovarian cancer(OVCAR-8) cell line; assay type: functional; conditions: Homo sapiens
MDA-MB-435 [31] = test: Inhibition of the growth of breast cancer (MDA-MB-435) cell line; assay type: functional; conditions: Homo sapiens
HCT-116 [32] = test: inhibition of the growth of colon cancer(HCT116) cell line; assay type: functional; conditions: Homo sapiens
[33] = target: T3, Bifunctional dihydrofolate reductase-thymidylate synthase (Toxoplasma gondii, UniProt Q07422)
T3 sequence (Q07422 whole entry): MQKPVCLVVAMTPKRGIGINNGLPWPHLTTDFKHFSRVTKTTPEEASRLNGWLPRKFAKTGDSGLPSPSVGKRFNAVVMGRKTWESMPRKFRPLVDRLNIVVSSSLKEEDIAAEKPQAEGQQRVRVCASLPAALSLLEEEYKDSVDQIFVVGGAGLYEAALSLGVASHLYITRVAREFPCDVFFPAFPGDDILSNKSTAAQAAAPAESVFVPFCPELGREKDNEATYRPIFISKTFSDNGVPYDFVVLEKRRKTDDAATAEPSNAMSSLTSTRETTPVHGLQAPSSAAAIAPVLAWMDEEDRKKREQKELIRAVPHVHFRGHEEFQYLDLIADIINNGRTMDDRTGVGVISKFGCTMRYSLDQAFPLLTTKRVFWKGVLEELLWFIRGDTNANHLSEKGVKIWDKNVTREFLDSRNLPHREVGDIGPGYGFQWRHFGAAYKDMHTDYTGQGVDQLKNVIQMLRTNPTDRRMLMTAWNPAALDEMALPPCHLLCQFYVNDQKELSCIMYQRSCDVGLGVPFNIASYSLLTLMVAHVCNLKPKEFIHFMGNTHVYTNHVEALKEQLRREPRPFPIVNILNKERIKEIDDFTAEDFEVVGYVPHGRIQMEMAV
Description: Inhibitory activity against dihydrofolate reductase (DHFR) from Toxoplasma gondii

NCI-H522 [34] = test: Inhibition of the growth of non-small-cell lung cancer (NCI-H522) cell line at 0.01 uM; assay type: functional; conditions: Homo sapiens
SK-MEL-5 [35] = test: Inhibition of the growth of melanoma cancer (SK-MEL-5) cell line at 0.01 uM; assay type: functional; conditions: Homo sapiens
MDA-N [36] = test: Inhibition of the growth of breast cancer(MDA-N) cell line at 0.01 uM; assay type: functional; conditions: Homo sapiens
SK-MEL-5 [37] = test: Inhibition of the growth of melanoma cancer (SK-MEL-5) cell line; assay type: functional; conditions: Homo sapiens
IGROV-1 [38] = test: Inhibition of the growth of ovarian cancer(IGROVI) cell line at 0.01 uM; assay type: functional; conditions: Homo sapiens
NCI-H23 [39] = test: Inhibition of the growth of non-small-cell lung cancer (NCI-H23) cell line at 0.01 uM; assay type: functional; conditions: Homo sapiens
NCI/ADR-RES [40] = test: Inhibition of the growth of breast cancer (MCF7/ADR-RES) cell line; assay type: functional; conditions: Homo sapiens
CAKI-1 [41] = test: Inhibition of the growth of renal cancer(CAKI-1) cell line at 0.01 uM; assay type: functional; conditions: Homo sapiens
HCT-15 [42] = test: Inhibition of the growth of colon cancer(HCT-15) cell line. value in parentheses is percent inhibition at 0.01 uM; assay type: functional; conditions: Homo sapiens
RPMI-8226 [43] = test: Inhibition of the growth of leukemia (RPMI-8226) cell line at 0.01 uM; assay type: functional; conditions: Homo sapiens
MOLT-4 = test: Inhibition of the growth of leukemia (MOLT-4) cell line.; assay type: functional; conditions: Homo sapiens
NCI-H460 [44] = test: Inhibition of the growth of non-small-cell lung cancer (NCI-H460) cell line; assay type: functional; conditions: Homo sapiens
SF-268 [45] = test: Inhibition of the growth of CNS cancer(SF-268) cell line at 0.01 uM; assay type: functional; conditions: Homo sapiens
SF-539 = test: inhibition of the growth of CNS cancer(SF-539) cell line. value in parentheses is percent inhibition at 0.01 uM; assay type: functional; conditions: Homo sapiens

COc1ccc(N(C)c2ccc3nc(N)nc(N)c3n2)cc1
GI50 (UO-31 [1]): < 10 nM | GI50 (DU-145 [2]): < 10 nM | inhibition at 0.01 µM (SF-295 [3]): 62% | GI50 (MDA-N [4]): < 10 nM | GI50 (M14 [5]): < 10 nM | GI50 (IGROV-1 [6]): < 10 nM | GI50 (MCF7): 60 nM | GI50 (NCI-H522 [7]): < 10 nM | GI50 (KM12): 20 nM | inhibition at 0.01 µM (A549 [8]): 67% | inhibition at 0.01 µM (SNB-19 [9]): 51% | inhibition at 0.01 µM (UO-31 [10]): 74% | GI50 (NCI-H322M): 20 nM | inhibition at 0.01 µM (OVCAR-8 [11]): 90% | GI50 (SNB-19 [12]): < 10 nM | inhibition at 0.01 µM (MDA-MB-435 [13]): 68% | GI50 (NCI-H23 [14]): < 10 nM | GI50 (RPMI-8226 [15]): < 10 nM | IC50 (Dihydrofolate reductase [16]): 6.8 nM | GI50 (SF-295 [17]): < 10 nM | inhibition at 0.01 µM (M14 [18]): 55% | inhibition at 0.01 µM (NCI/ADR-RES [19]): 100% | inhibition at 0.01 µM (DU-145 [20]): 51% | IC50 (Dihydrofolate reductase [21]): 220 nM | GI50 (HCT-15 [22]): < 10 nM | GI50 (SR [23]): < 10 nM | GI50 (CAKI-1 [24]): < 10 nM | inhibition at 0.01 µM (HCT-116 [25]): 83% | GI50 (786-0): 590 nM | GI50 (A549 [26]): < 10 nM | inhibition at 0.01 µM (NCI-H460 [27]): 84% | GI50 (SF-268 [28]): < 10 nM | inhibition at 0.01 µM (SR [29]): 53% | GI50 (OVCAR-8 [30]): < 10 nM | GI50 (MDA-MB-435 [31]): < 10 nM | GI50 (HCT-116 [32]): < 10 nM | IC50 [33]: 8.6 nM | inhibition at 0.01 µM (NCI-H522 [34]): 53% | inhibition at 0.01 µM (SK-MEL-5 [35]): 65% | inhibition at 0.01 µM (MDA-N [36]): 66% | GI50 (SK-MEL-5 [37]): < 10 nM | inhibition at 0.01 µM (IGROV-1 [38]): 62% | inhibition at 0.01 µM (NCI-H23 [39]): 54% | GI50 (NCI/ADR-RES [40]): < 10 nM | inhibition at 0.01 µM (CAKI-1 [41]): 59% | inhibition at 0.01 µM (HCT-15 [42]): 67% | inhibition at 0.01 µM (RPMI-8226 [43]): 59% | GI50 (MOLT-4): 20 nM | GI50 (NCI-H460 [44]): < 10 nM | inhibition at 0.01 µM (SF-268 [45]): 68% | GI50 (SF-539): 30 nM
